US20140275280A1 (COYOTE PHARMACEUTICALS, INC., priority 2013, published 2014)

Key:
[1] = test system: mild to moderate IBD following gastrectomy; test: Treatment of IBD in gastrectomized patients; format: in vivo; details: gastrectomized subjects, daily administration, 12 weeks
Procedure: (§1) A pharmaceutical composition comprising GGA or a GGA derivative as described herein is prepared. A subject is diagnosed with mild to moderate IBD following gastrectomy. […] Subjects are treated for 12 weeks. Subjects keep daily diaries and record the number and nature of bowel movements. The effect of the treatments is assessed by grading clinical symptoms of fecal blood, mucus, and urgency. In addition, sigmoidoscopic assessment and biopsies are performed, and efficacy of treatment assessed, based on grading of sigmoidoscopic and degree of histological inflammation in rectal biopsy specimens. Safety is assessed based on spontaneous side effect reporting.

[2] = test system: 90% hepatectomy; test: Acute liver damage after 90% hepatectomy; format: in vivo, Male Wister rats
Procedure: Male Wister rats weighing 230-260 g are obtained. After an overnight fast, GGA or a GGA derivative (as an emulsion with 5% gum arabic and 0.004% α-tocophenol) or vehicle (5% gum arabic emulsion with 0.004% α-tocophenol) is intragastrically administrated into rats 4 h prior to the operation. After rats are anesthetized, 90% hepatectomy is performed. Briefly, the left, median, right-upper, and right-lower lobes are removed, leaving the caudate lobes, which represent 10-11% of the original liver mass. Liver specimens and blood samples are collected after laparotomy and exsanguinations under deep anesthesia immediately before (0) and 4,8, 12, and 24 h after the operation. Small pieces of liver tissue are immediately stored in an RNeasy stabilization kit (Qiagen, Hilden, Germany). Sera are immediately separated, and the activities of alanine (ALT) and aspartate (AST) aminotransferases are measured.

[3] = test system: mild to moderate IBD; test: Treatment of inflammatory bowel disease (IBD) in subjects; format: in vivo; details: daily administration, 12 weeks
Procedure: as §1, with “IBD.” for “IBD following gastrectomy.”

[4] = test system: human hepatoma (Bel-7402) cells; test: Acetaminophen-induced hepatotoxicity cytotoxicity assay with S9 mixture; format: cell-based; details: cytotoxic concentration of acetaminophen, vs control conditions
Procedure: In order to test the protective activity of GGA and GGA derivatives from acetaminophen-induced hepatotoxicity, a cytotoxicity assay is employed using human hepatoma (Bel-7402) cells in the presence of S9 mixture. Cell viability and mitochondrial permeability transition (MPT) is assessed in the presence or absence of GGA or GGA derivatives in combination with a cytotoxic concentration of acetaminophen.

[5] = test system: DSS-induced colitis; test: Dextran sulfate sodium (DSS)-induced colitis; format: in vivo, BALB/c mice
Procedure: BALB/c mice are given 3% DSS solution orally for 7 days to induce colitis. The disease activity of colitis is assessed clinically every day, and histology in the colon is evaluated at 7 days post-DSS. The levels of myeloperoxidase (MPO) activity, tumor necrosis factor (TNF)-alpha and interferon (IFN)-gamma in the colon tissues are also examined. In addition, expression of HSPs 25, 40, 70 and 90 in the colon tissue is determined by Western blot analysis or ELISA. GGA or a GGA derivative is administered orally to mice when treatment of DSS is initiated.

[6] = test system: myocardial ischemia and reperfusion; test: Myocardial ischemia and reperfusion injury; format: in vivo, male rats; details: once orally 24 h before 30 min ischemia, 4 h of reperfusion
Procedure: Lactate dehydrogenase (LDH), creatine kinase (CK), malondialdehyde (MDA), superoxide dismutase (SOD) activity and infarct size are measured.

[7] = test system: HL-1 cardiomyocytes; test: In vitro ischemia/reperfusion cardiac disease model; format: cell-based, murine; details: HL-1 cells, nutrient-deficiency medium with 2.5 mM hydrogen peroxide
Procedure: Activity is assessed via apoptosis signaling, cell structure and energy-metabolism. The HL-1 cardiomyocytes (murine atrial tumor cell line) are maintained in monolayer culture with Claycomb-medium (Sigma, Germany), Heaving reached confluence and contractile activity, cells are maintained as subcultures. Induction of ischemia was carried out on vital cardiomyocytes at culture day four. The subconfluent, contractile HL-1 cardiomyocytes are placed in nutrient-deficiency medium containing 2.5 mM hydrogen peroxide solution in order to enhance the oxidative stress in HL-1 cells. In control cultures the medium exchange is carried out with standard supplemented Claycomb-medium. 8 h after ischemia induction samples are harvested and revitalization is induced in parallel by replacing nutrient-deficiency medium with fresh Claycomb-medium and incubating cells for another 16 hours. Cell proliferation analysis is done by flow cytometry. Apoptosis analysis is performed by terminal desoxynucleotidyl transferase-mediated dUTP nick end-labeling. Total number of cells are determined using 7-AAD nucleus staining. Additionally formaldehyde-fixed cells on glass coverslips are prepared for immuncytochemical staining.

[8] = test system: IEC-18 cells; test: Protection of intestinal epithelial cells from NH2Cl-induced injury; format: cell-based, Rat; details: pretreatment
Procedure: Cell viability is assessed, and endogenous HSP70 levels are determined by enzyme-linked immunosorbent assay in IEC-18 cells.

[9] = test system: heterotopically transplanted hearts; test: Heterotopically transplanted hearts; format: in vivo, rats; details: 24 h after transplantation
Procedure: A total of 20 donor rats are randomly divided into 2 groups. One of those receives an oral dose of GGA or a GGA derivative and one is a control group. […] The levels of HSP70 expression in donor hearts and the variation of myocardial enzymes in receptor blood or donor hearts are measured 24 h after transplantation. The donated hearts are also examined under a microscope for pathological changes. HSP70 expression is increase in the GGA-treated group.

[10] = single oral administration 4 h prior to operation, vs vehicle

CC(=O)CC/C=C(\C)CC/C=C(\C)CC/C=C(\C)CCC=C(C)C [GGA, Geranylgeranyl acetone]
efficacy in inflammatory bowel disease (treating the condition and maintaining remission) [1]: demonstrate efficacy
chaperone induction in liver (gene expression and immunoblot): HSP70, HSP27, BIP ([2]; after 90% hepatectomy): induce an endoplasmic reticulum chaperone, BIP
release of aminotransferases (ALT, AST) [2, 10]: significantly suppresses
survival [2, 10]: improves survival
efficacy in inflammatory bowel disease (treating the condition and maintaining remission) [3]: demonstrate efficacy
cell viability [4]: increased cell viability
expression of HSP70 in the colon ([5]; mice given DSS): enhances
clinical severity of colitis ([5]; oral, 3% DSS for 7 days): significantly reduces
level of IFN-gamma in the colon ([5]; oral, 3% DSS for 7 days): suppresses
level of MPO activity in the colon ([5]; oral, 3% DSS for 7 days): suppresses
level of TNF-alpha in the colon ([5]; oral, 3% DSS for 7 days): suppresses
decrease in SOD levels [6]: significantly inhibits
increase in MDA levels [6]: significantly inhibits
infarct size [6]: significantly reduces
level of CK [6]: significantly reduces
level of LDH [6]: significantly reduces
ischemia induced apoptosis (TUNEL) [7]: reduce ischemia induced apoptosis
ischemia-induced reduction of cell proliferation [7]: rescue ischemia-induced reduction of cell proliferation
HSP70 levels (ELISA) [8]: rapidly elevates HSP70 levels
protection against NH2Cl-induced injury (cell viability) [8]: protects against NH2Cl-induced injury
Lactate dehydrogenase concentration in receptor blood ([9]; vs control group): decreased
atriphosphate concentration ([9]; vs control group): higher
creatine kinase muscle band concentration in receptor blood ([9]; vs control group): decreased
malondialdehyde concentration ([9]; vs control group): lower
HSP70 expression in donor hearts ([9]; oral dose to donor 24 h before transplantation): increase
